Source: ChEMBL document CHEMBL3763140, “Discovery of 5-aryl-1,3-dihydro-2H-imidazo[4,5-b]pyridin-2-ones as positive allosteric modulators of metabotropic glutamate subtype-2 (mGlu2) receptors with efficacy in a preclinical model of psychosis” (Bioorg Med Chem Lett, 2016)
Converted amounts (≈) assume the structure as drawn. Blank lines part the entries; values can stand above or below the molecule they belong to.

What was measured:
physchem = settings: buffer, pH 7
[1] = Total clearance in iv dosed Wistar Hannover rat administered as single dose measured up to 24 hrs; assay type: ADME, organism-based; settings: in vivo
[2] = Half life in iv dosed Wistar Hannover rat administered as single dose measured up to 24 hrs; assay type: ADME, organism-based; settings: in vivo
Rattus norvegicus = assay: Intrinsic clearance in iv dosed Wistar Hannover rat administered as single dose measured up to 24 hrs; assay type: ADME, organism-based; settings: in vivo
[3] = Oral bioavailability in Wistar Hannover rat at 10 mg/kg administered as single dose measured up to 24 hrs; assay type: ADME, organism-based; settings: in vivo
[4] = Total plasma concentration in PCP stimulated Sprague-Dawley rat hyperlocomotion model at 10 mg/kg, po after 2 hrs; assay type: ADME, organism-based
[5] = Total plasma concentration in PCP stimulated Sprague-Dawley rat hyperlocomotion model at 30 mg/kg, po after 2 hrs; assay type: ADME, organism-based
[6] = Total plasma concentration in PCP stimulated Sprague-Dawley rat hyperlocomotion model at 100 mg/kg, po after 2 hrs; assay type: ADME, organism-based
[7] = Total plasma concentration in MK801 stimulated Sprague-Dawley rat hyperlocomotion model at 10 mg/kg, po after 2 hrs; assay type: ADME, organism-based
[8] = Total plasma concentration in MK801 stimulated Sprague-Dawley rat hyperlocomotion model at 30 mg/kg, po after 2 hrs; assay type: ADME, organism-based
[9] = Total plasma concentration in MK801 stimulated Sprague-Dawley rat hyperlocomotion model at 100 mg/kg, po after 2 hrs; assay type: ADME, organism-based
Plasma [10] = assay: Unbound plasma concentration in PCP stimulated Sprague-Dawley rat hyperlocomotion model at 10 mg/kg, po after 2 hrs; assay type: ADME, organism-based; settings: in vivo
Plasma [11] = assay: Unbound plasma concentration in PCP stimulated Sprague-Dawley rat hyperlocomotion model at 30 mg/kg, po after 2 hrs; assay type: ADME, organism-based; settings: in vivo
Plasma [12] = assay: Unbound plasma concentration in PCP stimulated Sprague-Dawley rat hyperlocomotion model at 100 mg/kg, po after 2 hrs; assay type: ADME, organism-based; settings: in vivo
Plasma [13] = assay: Unbound plasma concentration in MK801 stimulated Sprague-Dawley rat hyperlocomotion model at 10 mg/kg, po after 2 hrs; assay type: ADME, organism-based; settings: in vivo
Plasma [14] = assay: Unbound plasma concentration in MK801 stimulated Sprague-Dawley rat hyperlocomotion model at 30 mg/kg, po after 2 hrs; assay type: ADME, organism-based; settings: in vivo
Plasma [15] = assay: Unbound plasma concentration in MK801 stimulated Sprague-Dawley rat hyperlocomotion model at 100 mg/kg, po after 2 hrs; assay type: ADME, organism-based; settings: in vivo
Cerebrospinal fluid [16] = assay: Drug uptake in cerebro spinal fluid of PCP stimulated Sprague-Dawley rat hyperlocomotion model at 10 mg/kg, po; assay type: ADME, organism-based; settings: in vivo, read-out: Drug uptake
Cerebrospinal fluid [17] = assay: Drug uptake in cerebro spinal fluid of PCP stimulated Sprague-Dawley rat hyperlocomotion model at 30 mg/kg, po; assay type: ADME, organism-based; settings: in vivo, read-out: Drug uptake
Cerebrospinal fluid [18] = assay: Drug uptake in cerebro spinal fluid of PCP stimulated Sprague-Dawley rat hyperlocomotion model at 100 mg/kg, po; assay type: ADME, organism-based; settings: in vivo, read-out: Drug uptake
Cerebrospinal fluid [19] = assay: Drug uptake in cerebro spinal fluid of MK801 stimulated Sprague-Dawley rat hyperlocomotion model at 10 mg/kg, po; assay type: ADME, organism-based; settings: in vivo, read-out: Drug uptake
Cerebrospinal fluid [20] = assay: Drug uptake in cerebro spinal fluid of MK801 stimulated Sprague-Dawley rat hyperlocomotion model at 30 mg/kg, po; assay type: ADME, organism-based; settings: in vivo, read-out: Drug uptake
Cerebrospinal fluid [21] = assay: Drug uptake in cerebro spinal fluid of MK801 stimulated Sprague-Dawley rat hyperlocomotion model at 100 mg/kg, po; assay type: ADME, organism-based; settings: in vivo, read-out: Drug uptake
MDR1a (P-glycoprotein) = assay: Apparent permeability across pig LLC-PK cells expressing human/rat MDR1a; assay type: ADME, cell-based, Sus scrofa; settings: LLC-PK1
in vivo = settings: Wistar Hannover, rat, 10 mg/kg

Compound: Cn1c(=O)n(CC(C)(C)C)c2ccc(-c3ccc(S(C)(=O)=O)cc3)nc21
solubility (physchem): 7 µM (≈ 2.61 µg/mL)

clearance [1]: 42 mL/min/kg | half-life [2]: 58.8 min | CL (Rattus norvegicus): 2800 mL/min/kg | bioavailability [3]: 47% | concentration at 2 h [4]: 1800 nM | concentration at 2 h [5]: 8500 nM | concentration at 2 h [6]: 25000 nM | concentration at 2 h [7]: 1400 nM | concentration at 2 h [8]: 6700 nM | concentration at 2 h [9]: 22000 nM | Cp(f) (Plasma [10]): 54000 nM | Cp(f) (Plasma [11]): 255000 nM | Cp(f) (Plasma [12]): 750000 nM | Cp(f) (Plasma [13]): 42000 nM | Cp(f) (Plasma [14]): 201000 nM | Cp(f) (Plasma [15]): 660000 nM | concentration (Cerebrospinal fluid [16]): 26 nM | concentration (Cerebrospinal fluid [17]): 399 nM | concentration (Cerebrospinal fluid [18]): 906 nM | concentration (Cerebrospinal fluid [19]): 21 nM | concentration (Cerebrospinal fluid [20]): 211 nM | concentration (Cerebrospinal fluid [21]): 711 nM | Papp (MDR1a (P-glycoprotein)): 31 ×10⁻⁶ cm/s | Cmax at 24 h (in vivo): 1500 nM | solubility (physchem): 147 µM (≈ 54 µg/mL)
Compound: Cc1ccc(C(C)(C)O)cc1-c1ccc2c(n1)n(C)c(=O)n2CC(C)(C)C
